Laboratory results as given in ChEMBL document CHEMBL4507315 (2021).

Key:
[1] = system: Tyrosine-protein kinase ABL1 (Homo sapiens), P00519 [H396P]; conditions: Compound concentration 100.0 nM
[2] = system: Tyrosine-protein kinase ABL1 (Homo sapiens), P00519 [H396P]; conditions: Compound concentration 100.0 nM; remark: listed apart in the source
[3] = molecular target: Aurora kinase A (Homo sapiens) (UniProt O14965); conditions: Compound concentration 100.0 nM
[4] = molecular target: Tyrosine-protein kinase receptor UFO (Homo sapiens) (UniProt P30530); conditions: Compound concentration 100.0 nM
[5] = molecular target: Bone morphogenetic protein receptor type-2 (Homo sapiens) (UniProt Q13873); conditions: Compound concentration 100.0 nM
[6] = molecular target: Serine/threonine-protein kinase BRSK2 (Homo sapiens) (UniProt Q8IWQ3); conditions: Compound concentration 100.0 nM
[7] = molecular target: Calcium/calmodulin-dependent protein kinase type 1 (Homo sapiens) (UniProt Q14012); conditions: Compound concentration 100.0 nM
[8] = molecular target: Calcium/calmodulin-dependent protein kinase type 1G (Homo sapiens) (UniProt Q96NX5); conditions: Compound concentration 100.0 nM
[9] = molecular target: Citron Rho-interacting kinase (Homo sapiens) (UniProt O14578); conditions: Compound concentration 100.0 nM
[10] = molecular target: Tyrosine-protein kinase CSK (Homo sapiens) (UniProt P41240); conditions: Compound concentration 100.0 nM
[11] = molecular target: Dual specificity tyrosine-phosphorylation-regulated kinase 1A (Homo sapiens) (UniProt Q13627); conditions: Compound concentration 100.0 nM
[12] = system: Epidermal growth factor receptor (Homo sapiens), P00533 [L861Q]; conditions: Compound concentration 100.0 nM
[13] = system: Receptor-type tyrosine-protein kinase FLT3 (Homo sapiens), P36888 [D835V]; conditions: Compound concentration 100.0 nM
[14] = molecular target: Vascular endothelial growth factor receptor 3 (Homo sapiens) (UniProt P35916); conditions: Compound concentration 100.0 nM
[15] = molecular target: Inhibitor of nuclear factor kappa-B kinase subunit beta (Homo sapiens) (UniProt O14920); conditions: Compound concentration 100.0 nM
[16] = molecular target: Insulin receptor (Homo sapiens) (UniProt P06213); conditions: Compound concentration 100.0 nM
[17] = molecular target: Tyrosine-protein kinase JAK2 (Homo sapiens) (UniProt O60674); conditions: Compound concentration 100.0 nM
[18] = molecular target: Tyrosine-protein kinase JAK3 (Homo sapiens) (UniProt P52333); conditions: Compound concentration 100.0 nM
[19] = molecular target: Mitogen-activated protein kinase 10 (Homo sapiens) (UniProt P53779); conditions: Compound concentration 100.0 nM
[20] = molecular target: Serine/threonine-protein kinase LATS2 (Homo sapiens) (UniProt Q9NRM7); conditions: Compound concentration 100.0 nM
[21] = molecular target: Leucine-rich repeat serine/threonine-protein kinase 2 (Homo sapiens) (UniProt Q5S007); conditions: Compound concentration 100.0 nM
[22] = molecular target: Mitogen-activated protein kinase kinase kinase kinase 2 (Homo sapiens) (UniProt Q12851); conditions: Compound concentration 100.0 nM
[23] = molecular target: MAP/microtubule affinity-regulating kinase 3 (Homo sapiens) (UniProt P27448); conditions: Compound concentration 100.0 nM
[24] = molecular target: Serine/threonine-protein kinase 3 (Homo sapiens) (UniProt Q13188); conditions: Compound concentration 100.0 nM
[25] = molecular target: Serine/threonine-protein kinase 24 (Homo sapiens) (UniProt Q9Y6E0); conditions: Compound concentration 100.0 nM
[26] = molecular target: Serine/threonine-protein kinase 26 (Homo sapiens) (UniProt Q9P289); conditions: Compound concentration 100.0 nM
[27] = molecular target: Serine/threonine-protein kinase 38 (Homo sapiens) (UniProt Q15208); conditions: Compound concentration 100.0 nM
[28] = molecular target: Serine/threonine-protein kinase Nek3 (Homo sapiens) (UniProt P51956); conditions: Compound concentration 100.0 nM
[29] = system: Phosphatidylinositol 4,5-bisphosphate 3-kinase catalytic subunit alpha isoform (Homo sapiens), P42336 [H1047Y]; conditions: Compound concentration 100.0 nM
[30] = molecular target: Phosphatidylinositol 5-phosphate 4-kinase type-2 gamma (Homo sapiens) (UniProt Q8TBX8); conditions: Compound concentration 100.0 nM
[31] = molecular target: cAMP-dependent protein kinase catalytic subunit beta (Homo sapiens) (UniProt P22694); conditions: Compound concentration 100.0 nM
[32] = molecular target: Serine/threonine-protein kinase N2 (Homo sapiens) (UniProt Q16513); conditions: Compound concentration 100.0 nM
[33] = molecular target: Serine/threonine-protein kinase PLK2 (Homo sapiens) (UniProt Q9NYY3); conditions: Compound concentration 100.0 nM
[34] = molecular target: Serine/threonine-protein kinase D2 (Homo sapiens) (UniProt Q9BZL6); conditions: Compound concentration 100.0 nM
[35] = molecular target: Serine/threonine-protein kinase D3 (Homo sapiens) (UniProt O94806); conditions: Compound concentration 100.0 nM
[36] = molecular target: SRSF protein kinase 3 (Homo sapiens) (UniProt Q9UPE1); conditions: Compound concentration 100.0 nM
[37] = molecular target: Serine/threonine-protein kinase TNNI3K (Homo sapiens) (UniProt Q59H18); conditions: Compound concentration 100.0 nM
[38] = molecular target: 5-hydroxytryptamine receptor 7 (Homo sapiens) (UniProt P34969); conditions: Compound concentration 10.0 uM
[39] = molecular target: Sodium-dependent noradrenaline transporter (Homo sapiens) (UniProt P23975); conditions: Compound concentration 10.0 uM
[40] = molecular target: GABA-A receptor; anion channel (Rattus norvegicus) (UniProt O09028+P15431+P18506+P18508+P19969+P20236+P23574+P23576+P28471+P28473+P30191+P62813+P63079+P63138+Q91ZM7+Q9ES14); conditions: Compound concentration 10.0 uM
[41] = molecular target: Alpha-1B adrenergic receptor (Homo sapiens) (UniProt P35368); conditions: Compound concentration 10.0 uM
[42] = molecular target: Alpha-2B adrenergic receptor (Homo sapiens) (UniProt P18089); conditions: Compound concentration 10.0 uM
[43] = molecular target: Beta-2 adrenergic receptor (Homo sapiens) (UniProt P07550); conditions: Compound concentration 10.0 uM
[44] = molecular target: Alpha-1D adrenergic receptor (Homo sapiens) (UniProt P25100); conditions: Compound concentration 10.0 uM

Sequence of Sodium-dependent noradrenaline transporter (Homo sapiens) (P23975 whole entry): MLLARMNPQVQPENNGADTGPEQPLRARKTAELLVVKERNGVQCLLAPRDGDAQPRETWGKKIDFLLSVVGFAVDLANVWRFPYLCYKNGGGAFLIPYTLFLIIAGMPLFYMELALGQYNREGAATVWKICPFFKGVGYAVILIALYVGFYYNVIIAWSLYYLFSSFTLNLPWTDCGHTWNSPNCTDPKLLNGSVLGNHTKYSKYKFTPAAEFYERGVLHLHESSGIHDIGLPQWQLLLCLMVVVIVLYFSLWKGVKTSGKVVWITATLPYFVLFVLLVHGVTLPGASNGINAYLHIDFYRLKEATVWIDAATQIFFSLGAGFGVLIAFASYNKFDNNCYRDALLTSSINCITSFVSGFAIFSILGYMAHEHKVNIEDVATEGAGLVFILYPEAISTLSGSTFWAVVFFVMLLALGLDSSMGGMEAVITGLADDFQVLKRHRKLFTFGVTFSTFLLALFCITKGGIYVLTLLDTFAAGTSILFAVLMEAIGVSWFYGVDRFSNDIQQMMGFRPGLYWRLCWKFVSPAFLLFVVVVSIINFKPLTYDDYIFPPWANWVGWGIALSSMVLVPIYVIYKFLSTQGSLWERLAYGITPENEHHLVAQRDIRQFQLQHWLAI
Sequence of Phosphatidylinositol 4,5-bisphosphate 3-kinase catalytic subunit alpha isoform (Homo sapiens), P42336 [H1047Y] (P42336 whole entry H1047Y, canonical isoform): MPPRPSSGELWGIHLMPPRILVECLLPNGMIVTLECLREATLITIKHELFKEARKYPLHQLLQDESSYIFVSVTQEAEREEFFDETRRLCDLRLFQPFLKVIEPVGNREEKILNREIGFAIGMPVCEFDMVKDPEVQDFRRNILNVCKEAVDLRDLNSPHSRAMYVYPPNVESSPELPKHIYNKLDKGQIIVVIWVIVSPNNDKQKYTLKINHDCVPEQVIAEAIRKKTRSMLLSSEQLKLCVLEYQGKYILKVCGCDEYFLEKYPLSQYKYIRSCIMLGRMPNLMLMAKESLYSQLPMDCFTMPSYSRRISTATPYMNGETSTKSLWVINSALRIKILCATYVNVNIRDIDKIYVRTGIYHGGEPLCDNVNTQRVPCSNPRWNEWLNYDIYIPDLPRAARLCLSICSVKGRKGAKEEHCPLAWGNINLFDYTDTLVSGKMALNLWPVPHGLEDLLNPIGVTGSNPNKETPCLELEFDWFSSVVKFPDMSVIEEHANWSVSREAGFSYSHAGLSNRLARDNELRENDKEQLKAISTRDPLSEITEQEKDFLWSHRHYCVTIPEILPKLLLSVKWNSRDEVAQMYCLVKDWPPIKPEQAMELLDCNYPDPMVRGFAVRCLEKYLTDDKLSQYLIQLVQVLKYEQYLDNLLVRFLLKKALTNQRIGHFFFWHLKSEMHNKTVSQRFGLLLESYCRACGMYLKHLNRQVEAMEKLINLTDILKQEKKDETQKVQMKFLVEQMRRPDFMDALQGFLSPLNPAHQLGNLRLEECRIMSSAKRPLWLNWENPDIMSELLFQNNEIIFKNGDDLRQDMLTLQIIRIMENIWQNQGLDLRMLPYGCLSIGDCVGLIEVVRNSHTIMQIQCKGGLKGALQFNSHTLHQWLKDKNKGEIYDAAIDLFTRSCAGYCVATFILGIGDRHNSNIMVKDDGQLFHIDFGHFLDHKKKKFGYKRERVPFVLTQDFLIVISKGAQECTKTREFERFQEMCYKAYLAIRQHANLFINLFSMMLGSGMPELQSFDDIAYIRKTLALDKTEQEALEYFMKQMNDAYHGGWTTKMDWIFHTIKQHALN
Sequence of Alpha-1B adrenergic receptor (Homo sapiens) (P35368 whole entry): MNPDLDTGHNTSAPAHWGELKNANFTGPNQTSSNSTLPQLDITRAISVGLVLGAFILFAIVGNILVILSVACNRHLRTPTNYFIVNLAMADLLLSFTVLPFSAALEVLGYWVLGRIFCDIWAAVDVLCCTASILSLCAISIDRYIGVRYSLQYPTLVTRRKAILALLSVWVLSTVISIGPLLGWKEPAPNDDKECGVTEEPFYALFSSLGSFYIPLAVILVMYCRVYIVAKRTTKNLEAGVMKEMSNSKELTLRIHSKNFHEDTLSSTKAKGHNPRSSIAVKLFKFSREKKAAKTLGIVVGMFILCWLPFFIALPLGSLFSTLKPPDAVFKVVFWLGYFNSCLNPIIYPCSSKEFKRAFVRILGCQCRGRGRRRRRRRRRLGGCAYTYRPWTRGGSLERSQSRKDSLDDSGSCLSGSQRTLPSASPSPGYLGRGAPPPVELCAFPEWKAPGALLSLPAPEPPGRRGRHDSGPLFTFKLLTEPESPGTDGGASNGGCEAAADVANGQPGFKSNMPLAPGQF
Sequence of Bone morphogenetic protein receptor type-2 (Homo sapiens) (Q13873 whole entry): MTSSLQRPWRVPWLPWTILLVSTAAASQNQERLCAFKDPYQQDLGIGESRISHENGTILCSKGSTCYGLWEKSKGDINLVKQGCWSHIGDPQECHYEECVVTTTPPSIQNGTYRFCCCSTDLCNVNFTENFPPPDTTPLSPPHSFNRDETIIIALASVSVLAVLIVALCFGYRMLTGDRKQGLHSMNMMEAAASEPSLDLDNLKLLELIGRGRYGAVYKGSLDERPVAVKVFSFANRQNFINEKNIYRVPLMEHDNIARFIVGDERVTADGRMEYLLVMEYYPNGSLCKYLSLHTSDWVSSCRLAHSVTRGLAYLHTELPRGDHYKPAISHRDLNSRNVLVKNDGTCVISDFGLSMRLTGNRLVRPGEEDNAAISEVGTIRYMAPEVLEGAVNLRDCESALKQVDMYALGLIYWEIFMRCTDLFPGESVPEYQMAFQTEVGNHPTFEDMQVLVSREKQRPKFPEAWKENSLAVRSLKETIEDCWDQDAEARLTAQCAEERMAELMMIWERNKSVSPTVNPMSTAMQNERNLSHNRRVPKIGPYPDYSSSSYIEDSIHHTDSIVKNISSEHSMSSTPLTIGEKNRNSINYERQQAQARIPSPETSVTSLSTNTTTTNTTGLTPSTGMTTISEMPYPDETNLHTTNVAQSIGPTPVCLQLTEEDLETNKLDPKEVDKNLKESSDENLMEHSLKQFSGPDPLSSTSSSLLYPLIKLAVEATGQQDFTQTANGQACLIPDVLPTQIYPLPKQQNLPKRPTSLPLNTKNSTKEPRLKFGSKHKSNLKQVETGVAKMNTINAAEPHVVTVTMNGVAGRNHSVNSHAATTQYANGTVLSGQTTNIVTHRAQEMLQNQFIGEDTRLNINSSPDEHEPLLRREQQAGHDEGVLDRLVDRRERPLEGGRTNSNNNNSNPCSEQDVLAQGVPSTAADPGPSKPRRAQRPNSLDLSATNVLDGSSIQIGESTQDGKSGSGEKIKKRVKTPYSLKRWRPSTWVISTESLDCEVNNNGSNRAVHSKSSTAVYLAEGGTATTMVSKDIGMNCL
Sequence of Aurora kinase A (Homo sapiens) (O14965 whole entry): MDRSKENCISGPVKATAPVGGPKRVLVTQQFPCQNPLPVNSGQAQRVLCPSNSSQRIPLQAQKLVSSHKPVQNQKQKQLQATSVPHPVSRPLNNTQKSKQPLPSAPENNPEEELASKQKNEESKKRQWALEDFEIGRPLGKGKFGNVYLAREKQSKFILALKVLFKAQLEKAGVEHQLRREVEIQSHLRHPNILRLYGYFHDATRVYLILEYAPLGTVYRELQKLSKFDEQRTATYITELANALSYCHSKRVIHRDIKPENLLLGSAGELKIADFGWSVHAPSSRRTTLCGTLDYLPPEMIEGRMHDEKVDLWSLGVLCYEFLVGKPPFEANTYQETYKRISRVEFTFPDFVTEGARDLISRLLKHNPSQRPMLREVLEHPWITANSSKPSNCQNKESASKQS
Sequence of Serine/threonine-protein kinase Nek3 (Homo sapiens) (P51956 whole entry, canonical isoform): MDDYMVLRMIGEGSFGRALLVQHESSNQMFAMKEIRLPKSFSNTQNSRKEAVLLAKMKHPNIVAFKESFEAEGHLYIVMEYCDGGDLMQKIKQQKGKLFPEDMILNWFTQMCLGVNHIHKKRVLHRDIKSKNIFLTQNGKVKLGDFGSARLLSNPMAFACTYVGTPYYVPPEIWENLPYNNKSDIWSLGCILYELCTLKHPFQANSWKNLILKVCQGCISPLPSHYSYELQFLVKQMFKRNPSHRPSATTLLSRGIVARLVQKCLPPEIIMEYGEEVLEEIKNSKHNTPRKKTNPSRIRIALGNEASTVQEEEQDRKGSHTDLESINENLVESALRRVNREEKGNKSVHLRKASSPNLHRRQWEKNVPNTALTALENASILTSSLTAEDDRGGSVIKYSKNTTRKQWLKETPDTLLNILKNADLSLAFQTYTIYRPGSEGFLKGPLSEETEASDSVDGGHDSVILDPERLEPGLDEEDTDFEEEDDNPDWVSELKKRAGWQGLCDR
Sequence of Serine/threonine-protein kinase 26 (Homo sapiens) (Q9P289 2-416 limits assumed): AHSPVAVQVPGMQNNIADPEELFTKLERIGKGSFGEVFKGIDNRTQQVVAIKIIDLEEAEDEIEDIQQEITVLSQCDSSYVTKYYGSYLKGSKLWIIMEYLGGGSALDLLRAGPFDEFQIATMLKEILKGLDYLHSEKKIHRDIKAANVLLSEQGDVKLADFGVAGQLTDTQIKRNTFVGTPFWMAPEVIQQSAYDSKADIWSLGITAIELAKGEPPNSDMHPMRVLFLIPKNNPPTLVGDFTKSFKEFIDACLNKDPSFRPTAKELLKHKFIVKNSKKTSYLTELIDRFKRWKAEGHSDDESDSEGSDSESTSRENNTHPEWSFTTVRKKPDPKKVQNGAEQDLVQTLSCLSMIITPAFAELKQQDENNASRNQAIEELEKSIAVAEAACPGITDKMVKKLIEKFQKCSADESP
Sequence of Calcium/calmodulin-dependent protein kinase type 1G (Homo sapiens) (Q96NX5 whole entry): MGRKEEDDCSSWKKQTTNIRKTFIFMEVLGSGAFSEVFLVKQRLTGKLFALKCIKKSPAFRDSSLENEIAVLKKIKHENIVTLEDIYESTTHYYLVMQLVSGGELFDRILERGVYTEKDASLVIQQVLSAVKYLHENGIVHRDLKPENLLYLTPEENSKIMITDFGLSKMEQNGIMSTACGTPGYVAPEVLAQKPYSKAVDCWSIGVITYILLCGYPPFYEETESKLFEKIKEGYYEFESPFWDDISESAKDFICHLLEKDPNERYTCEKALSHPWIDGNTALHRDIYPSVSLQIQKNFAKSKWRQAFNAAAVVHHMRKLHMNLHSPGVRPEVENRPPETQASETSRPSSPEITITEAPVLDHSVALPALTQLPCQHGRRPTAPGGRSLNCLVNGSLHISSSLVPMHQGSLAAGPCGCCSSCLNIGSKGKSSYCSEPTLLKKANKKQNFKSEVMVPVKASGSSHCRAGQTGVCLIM

SMILES: Nc1c(C(=O)NCc2ccc(C(=O)NCCCC3CCCCC3)cc2)cnn1-c1ccccc1 [SR-318]
- residual activity [1]: 80%
- residual activity [2]: 100%
- residual activity [3]: 100%
- residual activity [4]: 87%
- residual activity [5]: 100%
- residual activity [6]: 79%
- residual activity [7]: 100%
- residual activity [8]: 100%
- residual activity [9]: 100%
- residual activity [10]: 100%
- residual activity [11]: 100%
- residual activity [12]: 90%
- residual activity [13]: 100%
- residual activity [14]: 100%
- residual activity [15]: 100%
- residual activity [16]: 100%
- residual activity [17]: 100%
- residual activity [18]: 100%
- residual activity [19]: 100%
- residual activity [20]: 100%
- residual activity [21]: 39%
- residual activity [22]: 94%
- residual activity [23]: 78%
- residual activity [24]: 100%
- residual activity [25]: 91%
- residual activity [26]: 97%
- residual activity [27]: 96%
- residual activity [28]: 100%
- residual activity [29]: 77%
- residual activity [30]: 100%
- residual activity [31]: 82%
- residual activity [32]: 78%
- residual activity [33]: 100%
- residual activity [34]: 100%
- residual activity [35]: 92%
- residual activity [36]: 100%
- residual activity [37]: 100%
- inhibition [38]: 13.2%
- inhibition [39]: 13.5%
- inhibition [40]: 21.7%
- inhibition [41]: 8.69%
- inhibition [42]: 17.7%
- inhibition [43]: 6.62%
- inhibition [44]: 22%

SMILES: O=C(NCCCC1CCCCC1)c1ccc(CNC(=O)c2cnn(-c3ccccc3)c2C(F)(F)F)cc1 [SR-321]
- residual activity [1]: 98%
- residual activity [2]: 99%
- residual activity [3]: 100%
- residual activity [4]: 95%
- residual activity [5]: 100%
- residual activity [6]: 100%
- residual activity [7]: 100%
- residual activity [8]: 100%
- residual activity [9]: 86%
- residual activity [10]: 100%
- residual activity [11]: 99%
- residual activity [12]: 100%
- residual activity [13]: 88%
- residual activity [14]: 100%
- residual activity [15]: 100%
- residual activity [16]: 100%
- residual activity [17]: 100%
- residual activity [18]: 100%
- residual activity [19]: 100%
- residual activity [20]: 97%
- residual activity [21]: 57%
- residual activity [22]: 100%
- residual activity [23]: 94%
- residual activity [24]: 100%
- residual activity [25]: 100%
- residual activity [26]: 93%
- residual activity [27]: 93%
- residual activity [28]: 100%
- residual activity [29]: 100%
- residual activity [30]: 99%
- residual activity [31]: 100%
- residual activity [32]: 100%
- residual activity [33]: 100%
- residual activity [34]: 100%
- residual activity [35]: 99%
- residual activity [36]: 100%
- residual activity [37]: 79%
- inhibition [38]: 25.8%
- inhibition [39]: -1.78%
- inhibition [40]: -4.39%
- inhibition [41]: -3.62%
- inhibition [42]: 1.13%
- inhibition [43]: 12.4%
- inhibition [44]: 10.1%
